# From PMC9298037 (Chemmedchem, 2021)
# Like-named read-outs stand apart in the source and are kept apart here.
# Legend:
# [1] = target: T1, MELK (Homo sapiens, UniProt Q14680)
# [2] = target: T1, MELK; assay: biochemical; conditions: for inhibition at 10 µM: read-out: Inh. %, single-point screen at 10uM concentration, Table S1
# T1 sequence (Q14680 whole entry): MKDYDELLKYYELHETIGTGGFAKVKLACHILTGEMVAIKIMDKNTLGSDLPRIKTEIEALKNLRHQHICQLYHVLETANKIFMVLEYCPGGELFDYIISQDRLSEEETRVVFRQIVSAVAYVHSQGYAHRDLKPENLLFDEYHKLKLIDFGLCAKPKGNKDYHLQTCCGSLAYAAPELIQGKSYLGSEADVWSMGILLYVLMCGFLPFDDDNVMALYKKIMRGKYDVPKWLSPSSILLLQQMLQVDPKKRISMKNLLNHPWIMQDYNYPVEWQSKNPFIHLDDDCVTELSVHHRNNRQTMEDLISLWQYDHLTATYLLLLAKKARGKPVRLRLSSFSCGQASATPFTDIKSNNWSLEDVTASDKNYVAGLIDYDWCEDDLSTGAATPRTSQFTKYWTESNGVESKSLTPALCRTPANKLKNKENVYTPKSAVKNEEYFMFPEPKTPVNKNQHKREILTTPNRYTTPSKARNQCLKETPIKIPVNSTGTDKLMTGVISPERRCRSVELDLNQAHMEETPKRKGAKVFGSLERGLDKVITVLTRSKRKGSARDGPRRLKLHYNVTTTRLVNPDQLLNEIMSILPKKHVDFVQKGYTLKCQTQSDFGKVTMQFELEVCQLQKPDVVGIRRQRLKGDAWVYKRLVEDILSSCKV
smiles,measurement,setting,value
"CCc1c2ccccc2cn2nc(-c3ccc(OC)cc3)nc12 [Compound 18, 10‐ethyl‐2‐(4‐methoxyphenyl)‐[1,2,4]triazolo[1,5‐b]isoquinoline]",inhibitory activity (in words),[1]; MELK,sub‐micromolar
same,activity boost,[1]; over 3-methoxyphenyl counterpart 19,2.5 fold
same,activity boost,[1]; over 10-methyl counterpart 4,4.5 fold
same,IC50,[2],0.794 µM
"COc1cccc(-c2nc3c(C)c4ccccc4cn3n2)c1 [Compound 5, 2‐(3‐methoxyphenyl)‐10‐methyl‐[1,2,4]triazolo[1,5‐b]isoquinoline]",IC50,[2],4.93 µM
same,inhibition at 10 µM,[2],> 40%
"Cc1c2ccccc2cn2nc(-c3ccc(Cl)cc3Cl)nc12 [Compound 13, 2‐(2,4‐dichlorophenyl)‐10‐methyl‐[1,2,4]triazolo[1,5‐b]isoquinoline]",IC50,[2],24.1 µM
"Cc1c2ccccc2cn2nc(-c3ccccn3)nc12 [Compound 11, 10‐methyl‐2‐(pyridin‐2‐yl)‐[1,2,4]triazolo[1,5‐b]isoquinoline]",IC50,[2],6.3 µM
"c1ccc(-c2nc3c4ccccc4ccn3n2)cc1 [ID 1855, 2‐phenyl‐[1,2,4]triazolo[3,2‐a]isoquinoline]",inhibition at 10 µM,[2],> 40%
"COc1ccc(-c2nc3c(C)c4ccccc4cn3n2)cc1 [Compound 4, 2‐(4‐methoxyphenyl)‐10‐methyl‐[1,2,4]triazolo[1,5‐b]isoquinoline]",IC50,[2],3.67 µM
same,inhibition at 10 µM,[2],> 40%
"Cc1c2ccccc2cn2nc(-c3ccc(C(F)(F)F)cc3)nc12 [Compound 8, 10‐methyl‐2‐(4‐(trifluoromethyl)phenyl)‐[1,2,4]triazolo[1,5‐b]isoquinoline]",inhibition at 10 µM,[2],> 40%
"CCc1c2ccccc2cn2nc(-c3ccc(Cl)cc3)nc12 [Compound 17, 2‐(4‐chlorophenyl)‐10‐ethyl‐[1,2,4]triazolo[1,5‐b]isoquinoline]",IC50,[2],> 3.7 µM
"CCc1c2ccccc2cn2nc(-c3cccc(OC)c3)nc12 [Compound 19, 10‐ethyl‐2‐(3‐methoxyphenyl)‐[1,2,4]triazolo[1,5‐b]isoquinoline]",activity boost,[1]; in comparison to compound 5 (10-ethyl vs 10-methyl),2.5 fold
same,IC50,[2],2.04 µM
same,inhibition at 10 µM,[2],> 40%
